Entries after “also recorded” stand apart in the source; their conditions may differ.
Assays:
[1] = test system: acute experimental autoimmune encephalomyelitis (EAE); assay: Acute EAE model; type: in vivo, Lewis rat; conditions: for Prevention of disease symptoms in the acute EAE model: doses between 0.1 and 10 mg/kg/day, oral
chronic-relapsing EAE = assay: Chronic-relapsing EAE model; type: in vivo, Lewis rat; conditions: 0.3 mg/kg/day orally, day 16 to day 31
Text: Animal models: The monophasic model of acute experimental autoimmune encephalomyelitis (EAE) and the chronic relapsing form are considered to be instructive animal models for multiple sclerosis. EAE can be induced in susceptible animals by a single injection of CNS tissue or MBP emulsified in complete Freund's adjuvant into the base of the tail. A monophasic acute paralytic disease appears in susceptible rat strains, e.g., Lewis, Wistar rat, about 8-11 days post-sensitization. The symptomatic rats recover within the following 7 days, but in other species the attack is usually lethal. In the chronic relapsing disease models rats undergo one to three relapses following the acute disease bout. These relapses are usually from very mild to severe and are observed within 20-100 days after the acute bout.
Chronic-relapsing EAE is induced by injecting an emulsion of guinea pig spinal cord in complete Freund's adjuvant in the hind paws of Lewis rats. Six to ten rats per group are used and somatic symptoms are judged daily on a scale of 0-3. The number of diseased animals as well as the time of onset of the disease is recorded. […] The statistical significance between treated and untreated groups is analyzed on each day using ANOVA analysis of variance followed by Dunn's multiple comparisons. […]

chronic EAE = assay: Chronic EAE model; type: in vivo, DA rat
Method: Induction of AEA in DA rat is induced as described by Lorentzen et al, 1995, J. Neuroimmunol.; 63(2):193-205 and Adelmann et al, 1995, J. Neuroimmunol.; 63(1):17-27. Briefly, rats are immunized with a mixture of DA rat brain and DA rat and bovine spinal cord homogenate supplemented with 0.02 μg/ml purified recombinant rat MOG protein. The mixture is homogenized and then mixed 1:1 with complete Freund's adjuvant containing 4 mg/ml M. tuberculosis H37RA(CFA). The resultant mixture is then homogenized using a Polytron PT3100 homogenizer (Kinematica, Lucerne, Switzerland). Rats are then injected subcutaneously at the dorsal root of tail with a single injection of 200 μl antigen/CFA. The resultant chronic disease is evaluated using numeric scale of progressive paralysis: 0, no paralysis; 1, loss of tail tonicity; 2, hindlimb weakening or ataxia; 3, hindlimb paralysis with or without urinary incontinence; 4, hindlimb and forelimb paralysis; 5, moribund or death. Clinical scores are evaluated on a daily basis, while body weight is determined every other day. […] Treatment of animals begins at the peak clinical disease on the 12th day and continues daily the 33rd day post-immunization (total 22 days). The test compound or vehicle (for the control groups) is administered orally daily.

[2] = 1 mg/kg p.o. daily days 0-13, female Lewis rats
[3] = 0.1 mg/kg p.o. daily days 0-13, female Lewis rats
[4] = 0.3 mg/kg p.o. daily days 0-13, female Lewis rats

SMILES	First symptoms on day [1, 2]	Number of Animals with EAE/total Day 12 [1, 2]	Number of Animals with EAE/total Day 14 [1, 2]	Prevention of disease symptoms in the acute EAE model [1]	First symptoms on day [1, 3]	Number of Animals with EAE/total Day 12 [1, 3]	Number of Animals with EAE/total Day 14 [1, 3]	First symptoms on day [1, 4]	Number of Animals with EAE/total Day 12 [1, 4]	Number of Animals with EAE/total Day 14 [1, 4]	Prevention of clinical relapses in the chronic relapsing EAE model (chronic-relapsing EAE)	Inhibition of chronic EAE (chronic EAE; 0.3, 0.1 or 0.03 mg/kg/d orally, day 12 to day 33 post-immunization)	Clinical disease compared to vehicle group (chronic EAE; each dose (0.3, 0.1, 0.03 mg/kg/d orally), statistical analysis)
C[C@](N)(CO)CCc1ccc(Sc2cccc(OCc3ccccc3)c2)cc1Cl [Compound B, (R)-2-amino-4-[4-(3-benzyloxyphenylthio)-2-chlorophenyl]-2-methylbutane-1-ol]	>14 days	0/5	0/5	lead to prevention of disease symptoms	–	–	–	–	–	–	–	–	–
NC(CO)(CO)CCc1ccc(Sc2cccc(OCc3ccccc3)c2)cc1Cl [Compound A, 2-amino-2-[4-(3-benzyloxyphenylthio)-2-chlorophenyl]ethyl-propane-1,3-diol]	>14 days	0/5	0/5	lead to prevention of disease symptoms; also recorded: prevents disease symptoms	9 days	0/5	3/4	14 days	0/5	1/5	prevents clinical relapses	effectively inhibits chronic EAE	significant reduction in clinical disease
CC[C@](N)(CO)CCc1ccc(Sc2cccc(OCc3ccccc3)c2)cc1Cl [Compound C, (R)-2-amino-4-[4-(3-benzyloxyphenylthio)-2-chlorophenyl]-2-ethylbutane-1-ol]	>14 days	0/5	0/5	lead to prevention of disease symptoms	–	–	–	–	–	–	–	–	–

From patent US20080200438A1, “Treatment of Autoimmune Diseases” (priority 2005, published 2008)
